According to PMC11694061 (Cancer Research, 2024):
Read-outs that look alike come from different tables or passages of the source.

Legend:
[1] = tested on: K562 cells; assay: Proliferation, K562; type: cell-based, human; details: Table S1 screening, read-out: IC50 (cell proliferation inhibition in K562 cells)
Description: Cells were inoculated onto 96-well plates and treated with compounds in serial dilutions for 3 or 5 days. […] The cell viability of primary patient samples was tested using the CellTiter-Glo Luminescent Assay kit (G7573, Promega) according to the manufacturer’s instructions. […] The optical density (OD) values were obtained using a SPARK microplate reader (Tecan). IC50 was calculated using GraphPad Prism 8.0.2 (nonlinear regression analysis with four parameters). Drug synergy was evaluated with combination index (CI) values using CalcuSyn Demo Version 2.0 software. CI > 1 indicates antagonism, CI < 1 indicates synergy, and CI = 1 indicates additivity.

[2] = target: T1, SOS1 in K562 cells (Homo sapiens, UniProt Q07889); assay: SOS1 degradation in K562 cells (Western blot); type: cell-based
T1 construct: endogenous in cells; host or cells: K562
T1 sequence (Q07889 1-1333): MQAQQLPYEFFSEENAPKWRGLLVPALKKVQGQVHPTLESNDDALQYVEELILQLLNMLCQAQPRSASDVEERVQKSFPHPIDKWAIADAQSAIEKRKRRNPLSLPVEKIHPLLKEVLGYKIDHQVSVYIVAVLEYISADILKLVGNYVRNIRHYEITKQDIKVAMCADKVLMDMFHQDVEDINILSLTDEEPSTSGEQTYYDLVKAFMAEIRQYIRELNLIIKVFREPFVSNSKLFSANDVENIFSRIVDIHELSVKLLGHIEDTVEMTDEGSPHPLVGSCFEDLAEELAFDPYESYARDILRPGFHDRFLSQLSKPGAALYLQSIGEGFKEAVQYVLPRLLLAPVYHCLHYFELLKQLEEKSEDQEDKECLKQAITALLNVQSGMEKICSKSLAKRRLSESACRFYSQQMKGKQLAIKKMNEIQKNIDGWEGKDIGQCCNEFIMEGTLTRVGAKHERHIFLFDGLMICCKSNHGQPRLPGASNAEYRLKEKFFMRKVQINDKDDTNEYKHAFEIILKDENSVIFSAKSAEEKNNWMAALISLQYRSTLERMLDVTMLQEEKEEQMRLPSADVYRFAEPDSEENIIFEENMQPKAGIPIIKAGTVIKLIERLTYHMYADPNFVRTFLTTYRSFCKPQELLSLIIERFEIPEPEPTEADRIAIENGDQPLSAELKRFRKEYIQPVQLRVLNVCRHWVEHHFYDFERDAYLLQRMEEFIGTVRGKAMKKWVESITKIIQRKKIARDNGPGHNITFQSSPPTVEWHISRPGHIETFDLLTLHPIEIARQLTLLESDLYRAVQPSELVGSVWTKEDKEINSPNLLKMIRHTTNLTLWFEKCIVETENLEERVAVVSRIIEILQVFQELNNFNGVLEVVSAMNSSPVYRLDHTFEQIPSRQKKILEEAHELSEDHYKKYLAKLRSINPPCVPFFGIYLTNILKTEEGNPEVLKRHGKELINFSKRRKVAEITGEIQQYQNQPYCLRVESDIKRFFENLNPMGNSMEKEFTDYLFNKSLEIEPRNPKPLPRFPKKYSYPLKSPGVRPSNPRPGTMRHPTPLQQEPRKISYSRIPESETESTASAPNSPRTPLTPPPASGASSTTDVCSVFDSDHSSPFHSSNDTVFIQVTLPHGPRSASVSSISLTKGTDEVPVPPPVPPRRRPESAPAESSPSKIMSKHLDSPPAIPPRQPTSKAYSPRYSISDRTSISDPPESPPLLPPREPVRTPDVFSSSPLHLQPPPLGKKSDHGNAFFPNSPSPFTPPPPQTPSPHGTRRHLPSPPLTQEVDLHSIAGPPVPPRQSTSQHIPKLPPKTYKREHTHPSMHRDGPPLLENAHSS
From the text: After treatment, the cells were harvested with SDS lysis buffer, and SDS-PAGE gels were used to split the proteins in the lysate solutions. […] AB_2758039).

| SMILES | IC50 ([1]; Homo sapiens, K562) | percent SOS1 degradation at 0.1 µM ([2]; 0.1 μM) | percent SOS1 degradation at 1 µM ([2]; 1.0 μM) | IC50 [1] | Degradation of SOS1 (%) ([2]; 0.1 μM) | Degradation of SOS1 (%) ([2]; 1.0 μM) |
| --- | --- | --- | --- | --- | --- | --- |
| COc1cc2nc(C)nc(N[C@H](C)c3cc(N)cc(C(F)(F)F)c3)c2cc1O[C@H]1CCN(CCCCCCCCCCCSc2cccc3c2CN(C2CCC(=O)NC2=O)C3=O)C1 (stereo partly drawn) [SIAIS562019] | 0.846 ± 0.157 µM | 4.6 ± 1.8% | 38.7 ± 1.1% |  |  |  |
| COc1cc2nc(C)nc(N[C@H](C)c3cc(N)cc(C(F)(F)F)c3)c2cc1OC1CCN(C(=O)CCCSc2cccc3c2CN(C2CCC(=O)NC2=O)C3=O)CC1 (stereo partly drawn) [SIAIS561133] | 1.67 ± 0.0177 µM | -26.7 ± 1.7% | -4 ± 11.7% |  |  |  |
| COc1cc2nc(C)nc(N[C@H](C)c3cc(N)cc(C(F)(F)F)c3)c2cc1O[C@H]1CCN(C(=O)CCCCCCCCCCSc2cccc3c2CN(C2CCC(=O)NC2=O)C3=O)C1 (stereo partly drawn) [SIAIS561098] | 11.5 ± 0.515 µM | 1.1 ± 1% | 17 ± 2.2% |  |  |  |
| COc1cc2nc(C)nc(N[C@H](C)c3cc(N)cc(C(F)(F)F)c3)c2cc1OC1CCN(C(=O)CSc2cccc3c2CN(C2CCC(=O)NC2=O)C3=O)CC1 (stereo partly drawn) [SIAIS561131] | 17.8 ± 3.9 µM | 12.3 ± 6.5% | -2.3 ± 9.5% |  |  |  |
| COc1cc2nc(C)nc(N[C@H](C)c3cc(N)cc(C(F)(F)F)c3)c2cc1O[C@H]1CCN(C(=O)CCCSc2cccc3c2CN(C2CCC(=O)NC2=O)C3=O)C1 (stereo partly drawn) [SIAIS561094] | 7.13 ± 0.224 µM | 32.9 ± 0.4% | 35.3 ± 0.6% |  |  |  |
| COc1cc2nc(C)nc(N[C@H](C)c3cc(N)cc(C(F)(F)F)c3)c2cc1O[C@H]1CCN(C(=O)CCCCCCCSc2cccc3c2CN(C2CCC(=O)NC2=O)C3=O)C1 (stereo partly drawn) [SIAIS561096] | 1.55 ± 0.0714 µM | 57.2 ± 0.7% | 49.7 ± 0.9% |  |  |  |
| COc1cc2nc(C)nc(N[C@H](C)c3cc(N)cc(C(F)(F)F)c3)c2cc1OC1CCN(C(=O)CCCCCCCCCSc2cccc3c2CN(C2CCC(=O)NC2=O)C3=O)CC1 (stereo partly drawn) [SIAIS561137] | 3.06 ± 1.1 µM | 3.6 ± 3.2% | 15.7 ± 3% |  |  |  |
| COc1cc2nc(C)nc(N[C@H](C)c3cc(N)cc(C(F)(F)F)c3)c2cc1O[C@H]1CCN(CCCCCCCCCCCCSc2cccc3c2CN(C2CCC(=O)NC2=O)C3=O)C1 (stereo partly drawn) [SIAIS562020] | 0.822 ± 0.083 µM | 30.4 ± 0.3% | 86.4 ± 0.4% |  |  |  |
| COc1cc2nc(C)nc(N[C@H](C)c3cc(N)cc(C(F)(F)F)c3)c2cc1OC1CCN(C(=O)CCCCCCCSc2cccc3c2CN(C2CCC(=O)NC2=O)C3=O)CC1 (stereo partly drawn) [SIAIS561139] | 2.75 ± 0.36 µM | -15.2 ± 2% | 7.7 ± 4.3% |  |  |  |
| COc1cc2nc(C)nc(N[C@H](C)c3cc(N)cc(C(F)(F)F)c3)c2cc1O[C@H]1CCN(C(=O)CCCCSc2cccc3c2CN(C2CCC(=O)NC2=O)C3=O)C1 (stereo partly drawn) [SIAIS561086] | 7.69 ± 0.0912 µM | 22.7 ± 1.7% | 33.5 ± 4.7% |  |  |  |
| COc1cc2nc(C)nc(N[C@H](C)c3cc(N)cc(C(F)(F)F)c3)c2cc1O[C@H]1CCN(C(=O)CCCCCCCCCCCSc2cccc3c2CN(C2CCC(=O)NC2=O)C3=O)C1 (stereo partly drawn) [SIAIS562082] | 4.68 ± 1.21 µM | 21.3 ± 0.5% | 71 ± 1.6% |  |  |  |
| COc1cc2nc(C)nc(N[C@H](C)c3cc(N)cc(C(F)(F)F)c3)c2cc1OC1CCN(C(=O)CCCCCCCCSc2cccc3c2CN(C2CCC(=O)NC2=O)C3=O)CC1 (stereo partly drawn) [SIAIS562080] | 4.95 ± 0.412 µM | -46.9 ± 11% | 5.5 ± 3.2% |  |  |  |
| COc1cc2nc(C)nc(N[C@H](C)c3cc(N)cc(C(F)(F)F)c3)c2cc1O[C@H]1CCN(CCCSc2cccc3c2CN(C2CCC(=O)NC2=O)C3=O)C1 (stereo partly drawn) [SIAIS561084] |  |  |  | 1.31 ± 0.176 µM | 7.3 ± 8.5% | -19.5 ± 2.2% |
| COc1cc2nc(C)nc(N[C@H](C)c3cc(N)cc(C(F)(F)F)c3)c2cc1O[C@H]1CCN(C(=O)CCCCCCCCSc2cccc3c2CN(C2CCC(=O)NC2=O)C3=O)C1 (stereo partly drawn) [SIAIS562079] | 7.08 ± 0.216 µM | 44.4 ± 6.5% | 49.7 ± 14% |  |  |  |
| COc1cc2nc(C)nc(N[C@H](C)c3cc(N)cc(C(F)(F)F)c3)c2cc1OC1CCN(C(=O)CCCCSc2cccc3c2CN(C2CCC(=O)NC2=O)C3=O)CC1 (stereo partly drawn) [SIAIS561134] | 3.6 ± 0.103 µM | 5.2 ± 12.8% | 14.2 ± 11.1% |  |  |  |
| COc1cc2nc(C)nc(N[C@H](C)c3cc(N)cc(C(F)(F)F)c3)c2cc1OC1CCN(C(=O)CCSc2cccc3c2CN(C2CCC(=O)NC2=O)C3=O)CC1 (stereo partly drawn) [SIAIS561132] | 0.112 ± 0.0042 µM | -14.7 ± 10.2% | -3.8 ± 4.2% |  |  |  |
| COc1cc2nc(C)nc(N[C@H](C)c3cc(N)cc(C(F)(F)F)c3)c2cc1O[C@H]1CCN(C(=O)CCCCCCCCCSc2cccc3c2CN(C2CCC(=O)NC2=O)C3=O)C1 (stereo partly drawn) [SIAIS561097] | 15.1 ± 2.04 µM | -10.2 ± 5.5% | -20.9 ± 9% |  |  |  |
| COc1cc2nc(C)nc(N[C@H](C)c3cc(N)cc(C(F)(F)F)c3)c2cc1O[C@H]1CCN(C(=O)CCSc2cccc3c2CN(C2CCC(=O)NC2=O)C3=O)C1 (stereo partly drawn) [SIAIS561093] | 16.4 ± 2.44 µM | 19.9 ± 1.8% | 24.7 ± 4.4% |  |  |  |
| COc1cc2nc(C)nc(N[C@H](C)c3cc(N)cc(C(F)(F)F)c3)c2cc1OC1CCN(C(=O)CCCCCCSc2cccc3c2CN(C2CCC(=O)NC2=O)C3=O)CC1 (stereo partly drawn) [SIAIS561136] | 2.53 ± 0.261 µM | 18.2 ± 6.2% | 49.3 ± 2.2% |  |  |  |
| COc1cc2nc(C)nc(N[C@H](C)c3cc(N)cc(C(F)(F)F)c3)c2cc1O[C@H]1CCN(C(=O)CSc2cccc3c2CN(C2CCC(=O)NC2=O)C3=O)C1 (stereo partly drawn) [SIAIS561092] | 7.29 ± 1.01 µM | -26.5 ± 8.3% | 8.1 ± 2.3% |  |  |  |
| COc1cc2nc(C)nc(N[C@H](C)c3cc(N)cc(C(F)(F)F)c3)c2cc1OC1CCN(C(=O)CCCCCCCCCCSc2cccc3c2CN(C2CCC(=O)NC2=O)C3=O)CC1 (stereo partly drawn) [SIAIS561138] | 8.97 ± 0.146 µM | -14.6 ± 1.1% | 11 ± 0.6% |  |  |  |
| COc1cc2nc(C)nc(N[C@H](C)c3cc(N)cc(C(F)(F)F)c3)c2cc1O[C@H]1CCN(C(=O)CCCCCCSc2cccc3c2CN(C2CCC(=O)NC2=O)C3=O)C1 (stereo partly drawn) [SIAIS561095] | 5.23 ± 1.39 µM | 26.7 ± 3% | 3.9 ± 4.7% |  |  |  |
| COc1cc2nc(C)nc(N[C@H](C)c3cc(N)cc(C(F)(F)F)c3)c2cc1O[C@H]1CCN(C(=O)CCCCCSc2cccc3c2CN(C2CCC(=O)NC2=O)C3=O)C1 (stereo partly drawn) [SIAIS561087] | 6.51 ± 0.514 µM | 53.5 ± 0.6% | 39.9 ± 0.9% |  |  |  |
| COc1cc2nc(C)nc(N[C@H](C)c3cc(N)cc(C(F)(F)F)c3)c2cc1OC1CCN(C(=O)CCCCCSc2cccc3c2CN(C2CCC(=O)NC2=O)C3=O)CC1 (stereo partly drawn) [SIAIS561135] | 1.85 ± 0.455 µM | 11.3 ± 4.8% | 12.7 ± 6.3% |  |  |  |
| COc1cc2nc(C)nc(N[C@H](C)c3cc(N)cc(C(F)(F)F)c3)c2cc1O[C@H]1CCN(CCSc2cccc3c2CN(C2CCC(=O)NC2=O)C3=O)C1 (stereo partly drawn) [SIAIS561091] |  |  |  | 1.2 ± 0.0658 µM | 36.2 ± 5.7% | 27.0 ± 7.5% |
| COc1cc2nc(C)nc(N[C@H](C)c3cc(N)cc(C(F)(F)F)c3)c2cc1OC1CCN(C(=O)CCCCCCCCCCCSc2cccc3c2CN(C2CCC(=O)NC2=O)C3=O)CC1 (stereo partly drawn) [SIAIS562083] | 4.13 ± 0.34 µM | -5.4 ± 2.2% | 35.5 ± 1% |  |  |  |
